“And” between values parts separate entries of the source, which are not always exact repeats. Identical values can stand only once.
Assays:
Format in all cases: cell-based
Alternaria alternata = assay: Minimum Inhibitory Concentration (MIC) by spiral plater / spiral gradient endpoint against Alternaria alternata
Description: (§1) Synergistic Index=Qa/QA+Qb/QB [Equation No. 1] • where Qa=the quantity of component A used in a binary mixture that gives the desired effect • QA=the quantity of component A which when used alone gives the desired effect • Qb=the quantity of component B used in a binary mixture that gives the desired effect • QB=the quantity of component B which when used alone gives the desired effect
(§2) Minimum Inhibitory Concentration (“MIC”) for each of the antimicrobial compositions was determined against a test microbe, which in this case was a spore suspension of the fungus Alternaria alternata, with the aid of an Autoplate 4000 spiral plater that is commercially available from Spiral Biotech, Inc., Norwood, Mass., and its accompanying spiral gradient endpoint software (hereinafter referred to as “the SGE software”). The spiral plater automates the normal serial dilution method for determining MICs. Although the details of the SGE software are held confidentially by Spiral Biotech, Inc., they are believed to consistent with the principles set forth in “Measurement of MICs of antibacterial agents by spiral gradient endpoint compared with conventional dilution method” J. H. Paton, H. A. Holt, and M. J. Bywater—Int. J. Exp. Clin. Chemother, 1990.
Spore suspensions for the test microbe were prepared by growing Alternaria alternata on a Difco malt agar slant in an incubator for 1 week at 28° C. Spores were loosened by adding a small amount of buffer solution at pH 7.0 and scraping with a sterile nichrome wire loop. This process was repeated twice. The buffer solution included phosphate buffer and magnesium chloride, and was obtained commercially from Thomas Scientific Company, as Lot #023-0703.
Loosened spores were removed from the slant by aseptically pouring them into a sterile bottle containing 30 ml of the buffer solution and a volume of approximately 40 ml of 6 mm diameter borosilicate glass beads. The bead bottle was shaken to disperse the spores and adjusted to a final liquid volume of 50 ml. For use as a test inoculum, spore density was adjusted in distilled water blanks to that of a 0.5 McFarland nephelometer standard.
(§3) The spiral plater automatically applied 54.3 micro-liters of each antimicrobial composition of interest to the surface of 150 millimeter malt agar plates using an exponential application gradient. The concentration of the antimicrobial concentration was greatest near the center of the Petri plates and decreased toward the edges. Antimicrobial composition gradients were allowed to air dry at room temperature for 1 to 4 hours at 23° C. before inoculation with test microbe. Spiral gradient plates were inoculated by streaking with cotton swabs that had been soaked in test microbe spore suspension. Streaks were applied in a radial pattern, using a paper template generated by the SGE software to guide the application. Eight radii were inoculated per Petri plate. Each radius is considered as one replicated observation.
(§4) Inoculated spiral gradient plates were incubated for 48 hours in an incubator at 28° C. Visible growth of the test microbe developed along the radial streaks and ended where the concentration of the antimicrobial composition was sufficient to prevent growth. This growth endpoint value (expressed in mm as measured from center point of the Petri plate) was used to calculate MIC for the mixture, expressed as parts per million.
Utilizing the procedure described above in Example 1, Minimum Inhibitory Concentration (“MIC”) for each of the antimicrobial compositions was determined against a test microbe, which in this case was a spore suspension of the […] Alternaria alternata.

Candida albicans = assay: Minimum Inhibitory Concentration (MIC) by spiral plater / spiral gradient endpoint against Candida albicans
Description: as §1, §2, §3, §4
Utilizing the procedure described above in Example, Minimum Inhibitory Concentration (“MIC”) for each of the antimicrobial compositions was determined against a test microbe, which in this case was a spore suspension of the yeast Candida albicans., as described above in Example 1. Several antimicrobial compositions containing calcium gluconate, BIT, or both in water were investigated, as shown below in Table 3
Utilizing the procedure described above in Example 1, Minimum Inhibitory Concentration (“MIC”) for each of the antimicrobial compositions was determined against a test microbe, which in this case was a spore suspension of the yeast Candida albicans. Several antimicrobial compositions containing calcium glycerate, BIT, or both in water were investigated, as shown below in Table 11.
Utilizing the procedure described above in Example 1, Minimum Inhibitory Concentration (“MIC”) for antimicrobial compositions was determined against a test microbe, which in this case was a spore suspension of the yeast Candida albicans. Several antimicrobial compositions containing calcium glycerate, BIT, or both in water were investigated, as shown below in Table 23.
Utilizing the procedure described above in Example 1, Minimum Inhibitory Concentration (“MIC”) for each of the antimicrobial compositions was determined against a test microbe, which in this case was a spore suspension of the fungus Candida Albicans.

Klebsiella pneumoniae = assay: Minimum Inhibitory Concentration (MIC) by spiral plater / spiral gradient endpoint against Klebsiella pneumoniae; conditions: quantity of BIT used alone that gives the desired effect, calcium ethylhexanoate-BIT series
Description: as §1
Minimum Inhibitory Concentration (“MIC”) for each of the antimicrobial compositions was determined against a test microbe, which in this case was a spore suspension of the fungus Alternaria alternata, with the aid of an Autoplate 4000 spiral plater that is commercially available from Spiral Biotech, Inc., Norwood, Mass., and its accompanying spiral gradient endpoint software (hereinafter referred to as “the SGE software”). […]
(§5) Inoculated spiral gradient plates were incubated for 48 hours in an incubator at 28° C. […] This growth endpoint value (expressed in mm as measured from center point of the Petri plate) was used to calculate MIC for the mixture, expressed as parts per million.
Utilizing the procedure described above in Example 1, Minimum Inhibitory Concentration (“MIC”) for each of the antimicrobial compositions was determined against a test microbe, which in this case was a spore suspension of the bacteria Klebsiella pneumoniae. […]

Escherichia coli = assay: Minimum Inhibitory Concentration (MIC) by spiral plater / spiral gradient endpoint against Escherichia coli
Description: as §1, §2
The spiral plater automatically applied 54.3 micro-liters of each antimicrobial composition of interest to the surface of 150 millimeter malt agar plates using an exponential application gradient. The concentration of the antimicrobial concentration was greatest near the center of the Petri plates and decreased toward the edges. […]
as §5
Utilizing the experimental procedure described above in Example 1, the MIC against Escherichia coli of several antibacterial compositions containing zinc gluconate, BIT, or both in water were determined.

Staphylococcus aureus = assay: Minimum Inhibitory Concentration (MIC) by spiral plater / spiral gradient endpoint against Staphylococcus aureus

SMILES: O=c1[nH]sc2ccccc12 [BIT, 1,2-benzisothiazol-3(2H)-one]
- QB (Alternaria alternata; MIC of BIT alone for Alternaria alternata, used for SI (zinc ethylhexanoate series)): 13 ppm
- QB (Alternaria alternata; MIC of BIT alone for Alternaria alternata, used for SI (zinc glycerate series)): 8.3 ppm
- QB (Alternaria alternata; quantity of BIT used alone that gives the desired effect, calcium ethylhexanoate-BIT series, Alternaria alternata): 13 ppm
- QB (Alternaria alternata; quantity of BIT used alone that gives the desired effect, calcium gluconate-BIT series, Alternaria alternata): 13 ppm
- QB (Alternaria alternata; quantity of BIT used alone that gives the desired effect, calcium glycerate-BIT series, Alternaria alternata): 85 ppm
- ppm of BIT alone providing the same inhibition (Alternaria alternata; zinc ethylhexanoate-BIT series, Alternaria alternata): 13 ppm
- ppm of BIT alone providing the same inhibition (Alternaria alternata; zinc glycerate-BIT series, Alternaria alternata): 8.3 ppm
- QB (Candida albicans; MIC of BIT alone for Candida albicans (average of Trials 1, 2), used for SI (zinc ethylhexanoate series)): 19 ppm
- QB (Candida albicans; MIC of BIT alone for Candida albicans, used for SI (zinc glycerate series)): 13 ppm and 16 ppm
- QB (Candida albicans; quantity of BIT used alone that gives the desired effect, calcium gluconate-BIT series, Candida albicans): 23 ppm
- QB (Candida albicans; quantity of BIT used alone that gives the desired effect, calcium glycerate-BIT series, Candida albicans): 85 ppm
- ppm of BIT alone providing the same inhibition (Candida albicans; zinc ethylhexanoate-BIT series, Candida albicans): 19 ppm
- ppm of BIT alone providing the same inhibition (Candida albicans; zinc glycerate-BIT series, Candida albicans): 13 ppm
- QB (Klebsiella pneumoniae): 27 ppm
- QB (Escherichia coli; MIC of BIT alone for Escherichia coli (average of Trials 1, 2), used for SI): 136 ppm
- ppm of BIT alone providing the same inhibition (Escherichia coli; zinc gluconate-BIT series, Escherichia coli): 136 ppm
- QB (Staphylococcus aureus; MIC of BIT alone for Staphylococcus aureus, used for SI): 16 ppm
- ppm of BIT alone providing the same inhibition (Staphylococcus aureus; zinc glycerate-BIT series, Staphylococcus aureus): 16 ppm

Source: patent US20180332847A1, “ANTIMICROBIAL METAL CARBOXYLATE-BENZISOTHIAZOLINONE MIXTURES” (Troy Corporation, priority 2017, published 2018)
